Reference: article PMC12298351, “Novel 3,19-(N-Phenyl-3-(4-fluorophenyl)-pyrazole) Acetal of Andrographolide Promotes Cell Cycle Arrest and Apoptosis in MDA-MB-231 Breast Cancer Cells” (Pharmaceuticals, 2025)

How the values were obtained:
DU-145 = conditions: DU-145, Prostate
TK-10 = format: cell-based; conditions: TK-10, Renal
SF-268 = conditions: SF-268, CNS
IGROV1 = conditions: IGROV1, Ovarian
RPMI-8226 = conditions: RPMI-8226, Leukemia
KM12 = conditions: KM12, Colon
SK-OV-3 = conditions: SK-OV-3, Ovarian
A498 = conditions: A498, Renal
MDA-MB-468 = conditions: MDA-MB-468, Breast
UO-31 = conditions: UO-31, Renal
SK-MEL-28 = conditions: SK-MEL-28, Melanoma
MCF7 = conditions: MCF7, Breast
UACC-62 = conditions: UACC-62, Melanoma
M14 = format: cell-based; conditions: M14, Melanoma
U251 = conditions: U251, CNS
RXF 393 = conditions: RXF 393, Renal
OVCAR-3 = conditions: OVCAR-3, Ovarian
UACC-257 = conditions: UACC-257, Melanoma
SW-620 = conditions: SW-620, Colon
CAKI-1 = conditions: CAKI-1, Renal
OVCAR-8 = conditions: OVCAR-8, Ovarian
K-562 = conditions: K-562, Leukemia
[1] = read-out: 50% lethal concentration (LC50), Non-Small Cell Lung
[2] = read-out: 50% lethal concentration (LC50)
[3] = read-out: 50% lethal concentration (LC50), Leukemia
[4] = read-out: 50% lethal concentration (LC50), Renal

## C=C1CCC2C3(C)COC(c4cn(-c5ccccc5)nc4-c4ccc(F)cc4)OC3CCC2(C)C1CC=C1C(=O)OCC1O (stereo not drawn) [1f, 3,19-(N-Phenyl-3-(4-fluorophenyl)-pyrazole) Acetal of Andrographolide]
A549/ATCC; Non-Small Cell Lung
  Total growth inhibition (TGI): 5.92 µM
A549/ATCC; Non-Small-Cell Lung
  GI50: 2.14 µM
A549/ATCC; [1]
  CC50: 51.5 µM
DU-145
  GI50: 1.82 µM
  Total growth inhibition (TGI): 3.44 µM
DU-145; [2]
  CC50: 6.52 µM
TK-10
  GI50: 1.27 µM
  Total growth inhibition (TGI): 2.55 µM
SF-268
  GI50: 2.36 µM
  Total growth inhibition (TGI): 5.63 µM
SF-268; [2]
  CC50: 25.7 µM
IGROV1
  GI50: 1.84 µM
  Total growth inhibition (TGI): 4.75 µM
IGROV1; [2]
  CC50: > 100 µM
RPMI-8226
  GI50: 0.49 µM
  Total growth inhibition (TGI): > 100 µM
RPMI-8226; [2]
  CC50: > 100 µM
SR; Leukemia
  GI50: 1.7 µM
  Total growth inhibition (TGI): 7.33 µM
SR; [3]
  CC50: > 100 µM
KM12
  GI50: 1.84 µM
  Total growth inhibition (TGI): 3.59 µM
ACHN; Renal
  GI50: 1.66 µM
  Total growth inhibition (TGI): 3.11 µM
ACHN; [4]
  CC50: 5.82 µM
SN12C; Renal
  GI50: 1.55 µM
  Total growth inhibition (TGI): 3.27 µM
SN12C; [4]
  CC50: 6.93 µM
SK-OV-3
  GI50: 1.88 µM
  Total growth inhibition (TGI): 5.48 µM
SK-OV-3; [2]
  CC50: 30.7 µM
A498
  GI50: 3.31 µM
  Total growth inhibition (TGI): 11.5 µM
A498; [2]
  CC50: 38.3 µM
MDA-MB-468
  GI50: 1.53 µM
  Total growth inhibition (TGI): 2.96 µM
MDA-MB-468; [2]
  CC50: 5.71 µM
HOP-62; HOP-62, Non-Small Cell Lung
  Total growth inhibition (TGI): 3.36 µM
HOP-62; HOP-62, Non-Small-Cell Lung
  GI50: 1.62 µM
HOP-62; read-out: 50% lethal concentration (LC50), HOP-62, Non-Small Cell Lung
  CC50: 6.95 µM
UO-31
  GI50: 1.6 µM
  Total growth inhibition (TGI): 3.34 µM
UO-31; [2]
  CC50: 5.14 µM
EKVX; Non-Small Cell Lung
  Total growth inhibition (TGI): 4.72 µM
EKVX; Non-Small-Cell Lung
  GI50: 2.06 µM
EKVX; [1]
  CC50: > 100 µM
SK-MEL-28
  GI50: 1.66 µM
  Total growth inhibition (TGI): 3.12 µM
SK-MEL-28; [2]
  CC50: 5.86 µM
NCI-H460; NCI-H460, Non-Small Cell Lung
  Total growth inhibition (TGI): 3.33 µM
NCI-H460; NCI-H460, Non-Small-Cell Lung
  GI50: 1.69 µM
NCI-H460; read-out: 50% lethal concentration (LC50), NCI-H460, Non-Small Cell Lung
  CC50: 6.57 µM
MCF7
  GI50: 1.43 µM
  Total growth inhibition (TGI): 4.13 µM
MCF7; [2]
  CC50: 63.1 µM
UACC-62
  GI50: 1.58 µM
  Total growth inhibition (TGI): 3.09 µM
UACC-62; [2]
  CC50: 6.05 µM
LOX IMVI; Melanoma
  GI50: 1.32 µM
  Total growth inhibition (TGI): 2.59 µM
LOX IMVI; read-out: 50% lethal concentration (LC50), Melanoma
  CC50: 5.09 µM
M14
  GI50: 1.5 µM
  Total growth inhibition (TGI): 3.23 µM
U251
  GI50: 2.36 µM
  Total growth inhibition (TGI): 5.63 µM
RXF 393
  GI50: 1.6 µM
  Total growth inhibition (TGI): 3.04 µM
RXF 393; [2]
  CC50: 5.78 µM
OVCAR-3
  GI50: 2.02 µM
  Total growth inhibition (TGI): 3.71 µM
OVCAR-3; [2]
  CC50: 6.79 µM
UACC-257
  GI50: 1.65 µM
  Total growth inhibition (TGI): 3.18 µM
CCRF-CEM; Leukemia
  GI50: 0.4 µM
CCRF-CEM; [3]
  CC50: > 100 µM
SW-620
  GI50: 4.49 µM
  Total growth inhibition (TGI): > 100 µM
SW-620; [2]
  CC50: > 100 µM
NCI/ADR-RES; Ovarian
  GI50: 1.54 µM
  Total growth inhibition (TGI): 3.57 µM
NCI/ADR-RES; read-out: 50% lethal concentration (LC50), Ovarian
  CC50: 8.29 µM
CAKI-1
  GI50: 1.58 µM
  Total growth inhibition (TGI): 3.17 µM
CAKI-1; [2]
  CC50: 6.34 µM
OVCAR-8
  GI50: 1.48 µM
  Total growth inhibition (TGI): 2.95 µM
OVCAR-8; [2]
  CC50: 5.86 µM
K-562
  GI50: 2.34 µM
  Total growth inhibition (TGI): > 100 µM
K-562; [2]
  CC50: > 100 µM
